Data on seven compounds can be found in US20070185069A1, “Anti-angiogenic activity of 2-methoxyestradiol in combination with anti-cancer agents” (priority 2005, published 2007).

Values joined by “and” are separate entries in the source; they are usually repeats but may differ in a detail not shown here. Identical values can stand only once.

The subject of one series is LLC met. As to the kind of experiment: LLC met tumor model. Format: in vivo. The following applies: 2ME2 or both combined.
The test system of a further series is RPMI-8226. Put plainly: RPMI-8226 xenograft model of myeloma. The class given is in vivo. The following applies: RPMI-8226 model; Velcade, 2ME2 or both combined.
For a further series, the system named is H2122. As to the kind of experiment: H2122 tumor model, MST. Format: in vivo. The following applies: Paclitaxel, 2ME2 or both combined.
The test system of series [1] is vascular endothelial cell proliferation. Conditions: Ingber et al. 1990; cited from earlier work.
Another series in a line: in vivo. The procedure:
(§1) 2-methoxyestradiol (2ME2) is an endogenous metabolite of estradiol with antiproliferative, proapoptotic and antiangiogenic activity. […] A new formulation of 2ME2 with enhanced absorption, Panzem® NCD, is currently in clinical trials. In anticipation of Phase 2 clinical trials with Panzem® NCD, tests were conducted to assess its anti-tumor activity as either monotherapy or in combination with cytotoxic agents. In this preclinical study, the effectiveness of 2ME2 alone or with the antimetabolite, 5-Fluorouracil (5-FU) in the CT-26 syngeneic tumor model was evaluated. 5-FU is a well-recognized and commonly used antineoplastic agent used for treatment of colorectal cancer. […] Subsequent to these studies, male BALB/c mice were injected subcutaneously with 1×10^6 CT-26 cells. Starting 7 days after tumor cell inoculation when mean tumor volume was approximately 100 mm^3, cohorts of mice (n=5/group) began treatment with (a) vehicle alone; (b) 2ME@200mg/kg p.o. q.d.; (c) 5-FU 30mg/kg p.o. q.d.×5; (d) or a combination of 5-FU at 30 mg/kg p.o. q.d.×5 with 2ME2 at 50, 100, or 200 mg/kg p.o. q.d. […] Cohorts of mice receiving the combination of 5-FU and 2ME2 had oral administrations in the A.M. (5-FU) and the P.M. (2ME2).

For series [2], the system named is CT-26 syngeneic colon carcinoma. Put plainly: CT-26 syngeneic tumor model, subcutaneous. Format: in vivo, BALB/c mice. The procedure: as §1
The test system of series [3] is U87 MG ectopic tumors. As to the kind of experiment: Late stage U87 MG glioblastoma xenograft tumor model. Conditions: for %Δ (Percent change in tumor volume from start of treatment): U87MG model, Temodar, 2ME2 or both combined; for inhibition of tumor growth: study day 28, treatment begun at about 300 mm^3, 2ME2 400 mg/kg p.o., q.d., Temodar 42 mg/kg p.o., q.d.×5. The class given is in vivo, mice. The procedure: In a second preclinical study the effectiveness of 2ME2 alone or in combination with Temodar® in the U87 MG glioblastoma xenograft tumor model was evaluated. Given the effectiveness of Temodar® at the maximally tolerated dose against 100 mm^3 tumor burden, we altered the treatment strategy such that treatment was initiated when mean tumor volume was approximately 300 mm^3. Cohorts of mice received treatment with either vehicle control, 2ME2 400 mg/kg p.o., q.d., Temodar® 42 mg/kg p.o., q.d×5, or 2ME2 400 mg/kg p.o., q.d. combined with Temodar® 42 mg/kg p.o., q.d.×5. Mice treated with the combination of 2ME2 and Temodar® received oral administration in the PM and AM, respectively.

Series [4] deals with U87 MG ectopic tumors. As to the kind of experiment: Early stage U87 MG ectopic tumors, subcutaneous. Conditions: study day 30; for inhibition of tumor growth: treatment begun at about 100 mm^3. The class given is in vivo, Balb/c SCID mice. The procedure: To assess whether 2ME2 or Temodarg® (Schering Corp. Kenilworth, N.J.) impact tumor growth of U87 MG, we designed the following experiment. Male Balb/c SCID mice were injected subcutaneously with 1×10^6 U87 MG tumor cells.

For another series, the system named is U87MG. As to the kind of experiment: U87MG tumor model, CPT-11 combination. Format: in vivo. The following applies: CPT-11, 2ME2 or both combined.
In another series the test system is PC3. Put plainly: PC3 tumor model, XRT combination. The class given is in vivo. The following applies: 2ME2 or both combined.
Another series relates to HUVEC. As to the kind of experiment: HUVEC proliferation assay (BRDU). Format: cell-based. Conditions: 48 hours after application of drug. The procedure:
(§2) U87 MG human glioblastoma cells were maintained in vitro in DMEM supplemented with 5% FBS, 2 mM glutamine, 1 mM sodium pyruvate, MEM vitamins and NEAA at 37° C. and 5% CO2. HUVEC were maintained in M 200 media. For both HUVEC and U87 MG proliferation assays, cells were plated in a 96 well plate at 5×10^3 cells per well and incubated at 37° C. overnight. At 24 hours, the media was aspirated and 2ME2 was administered to the cells at the following doses: […]. Proliferation was assessed 48 hours after application of drug by WST-1(U87 MG) or BRDU (HUVEC).

The subject of series [5] is U87 MG human glioblastoma cells. As to the kind of experiment: U87 MG proliferation assay (WST-1). The class given is cell-based. The following applies: U87 MG versus HUVEC. How it is done:
as §2

The next series concerns the target estrogen receptor β (Homo sapiens, UniProt Q92731). Conditions: LaVallee et al. 2002; cited from earlier work.
For a further series, the system named is CT-26 cells. As to the kind of experiment: In vitro inhibition of proliferation of CT-26 cells. Format: cell-based. Conditions: preliminary in vitro studies.
For another series, the target named is T1, estrogen receptor α (Homo sapiens, UniProt P03372).
T1 sequence (P03372 1-595): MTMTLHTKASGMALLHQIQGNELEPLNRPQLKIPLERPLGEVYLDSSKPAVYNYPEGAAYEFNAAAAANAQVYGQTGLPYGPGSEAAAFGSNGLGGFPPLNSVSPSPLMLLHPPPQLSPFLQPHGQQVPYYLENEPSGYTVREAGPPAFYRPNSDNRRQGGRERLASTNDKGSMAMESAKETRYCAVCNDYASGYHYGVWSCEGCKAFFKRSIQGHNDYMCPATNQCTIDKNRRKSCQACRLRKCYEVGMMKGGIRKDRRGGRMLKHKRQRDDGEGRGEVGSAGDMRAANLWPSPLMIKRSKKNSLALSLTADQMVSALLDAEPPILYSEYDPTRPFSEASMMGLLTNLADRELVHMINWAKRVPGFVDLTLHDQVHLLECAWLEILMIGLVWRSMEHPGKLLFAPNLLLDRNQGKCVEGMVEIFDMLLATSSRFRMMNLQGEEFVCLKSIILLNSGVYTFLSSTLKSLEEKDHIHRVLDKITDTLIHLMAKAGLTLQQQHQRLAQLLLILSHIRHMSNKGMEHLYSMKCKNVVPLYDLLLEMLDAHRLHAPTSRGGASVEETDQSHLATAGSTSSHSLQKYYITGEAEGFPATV
Conditions: LaVallee et al. 2002; cited from earlier work.

Series [6] in a line: Separate tolerability study of Temodar. Also noted: species or system mice. The following applies: mouse, in vivo, po, q.d.×5; read-out: maximally tolerated dose (MTD). How it is done: Results: On study day 30, the mean tumor volume of the vehicle control animals was approximately 3000 mm^3. […] Using this dose and regimen in this model, Temodar® blocked U87 MG tumor growth by 98% (T/C =0.02).

The mark [7] stands for this setting: CT-26 model (Table 1), 5-FU, 2ME2 or both combined.

Chain of estrogen receptor β (Q92731 whole entry): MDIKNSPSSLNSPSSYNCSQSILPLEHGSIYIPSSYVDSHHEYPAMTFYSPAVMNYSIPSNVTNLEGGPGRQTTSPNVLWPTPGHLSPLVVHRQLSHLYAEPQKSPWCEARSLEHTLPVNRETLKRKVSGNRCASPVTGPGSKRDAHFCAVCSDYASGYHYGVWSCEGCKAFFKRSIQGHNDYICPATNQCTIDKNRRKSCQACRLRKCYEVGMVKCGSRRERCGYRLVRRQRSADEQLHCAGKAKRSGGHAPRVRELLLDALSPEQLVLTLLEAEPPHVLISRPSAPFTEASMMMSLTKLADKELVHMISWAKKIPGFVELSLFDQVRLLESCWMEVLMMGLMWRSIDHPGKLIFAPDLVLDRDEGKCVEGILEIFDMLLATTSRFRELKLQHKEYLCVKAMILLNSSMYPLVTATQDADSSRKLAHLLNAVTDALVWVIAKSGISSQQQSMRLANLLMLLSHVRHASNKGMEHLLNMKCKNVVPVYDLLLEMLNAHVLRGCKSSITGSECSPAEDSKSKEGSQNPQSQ

For the compound `N.N.[Cl][Pt][Cl]` [Cisplatin, reference compound], in the series with LLC met (Cisplatin), the T/C is given as 0.19.

For `CC(C)C[C@H](NC(=O)[C@H](Cc1ccccc1)NC(=O)c1cnccn1)B(O)O` [Velcade, reference compound], in the series on RPMI-8226, the T/C stood at 0.64.

As to `CC(=O)O[C@H]1C(=O)[C@@]2(C)[C@H]([C@H](OC(=O)c3ccccc3)[C@]3(O)C[C@H](OC(=O)[C@H](O)[C@@H](NC(=O)c4ccccc4)c4ccccc4)C(C)=C1C3(C)C)[C@]1(OC(C)=O)CO[C@@H]1C[C@@H]2O` [Paclitaxel, reference compound], the T/C with LLC met (Paclitaxel) was 0.38. Also, the MST with H2122 turned out to be 24 days.

Take `CO[C@@H]1[C@H](OC(=O)NC(=O)CCl)CC[C@]2(CO2)[C@H]1[C@@]1(C)O[C@@H]1CC=C(C)C` [AGM-1470]: the “half-maximal inhibition of vascular endothelial cell proliferation at lower concentration than tumor cell proliferation” value in series [1] is 4 logs.

`O=c1[nH]cc(F)c(=O)[nH]1` [5-FU, 5-Fluorouracil]: the MTD at 5 days in the series “in vivo” (male, mouse, in vivo, po) was 30 mg/kg. In addition, the “mean changes in body weight as a consequence of treatment” value in “in vivo” (mouse, in vivo) is “moderate to no change”. For the same compound, the T/C in [2] (setting [7]) came out at 0.38.

Take `COc1cc2c(cc1O)CC[C@@H]1[C@@H]2CC[C@]2(C)[C@@H](O)CC[C@@H]12` [2ME2, 2-methoxyestradiol]: the results for the “%Δ (Percent change in tumor volume from start of treatment)” value with U87 MG ectopic tumors [3] and in the series with U87MG were 333% and 890%, respectively. The “inhibition of tumor growth” value was 20% in the series with U87 MG ectopic tumors [3]; “approximately 40%” in the series on U87 MG ectopic tumors [4] (2ME2 200 mg/kg p.o., q.d.); “approximately 40%” in the series on U87 MG ectopic tumors [4] (2ME2 400 mg/kg p.o., q.d.). In addition, the T/C in the series with RPMI-8226 was determined as 0.66; in the series on U87 MG ectopic tumors [4] (2ME2 200 mg/kg p.o., q.d.), 0.61; with U87 MG ectopic tumors [4] (2ME2 400 mg/kg p.o., q.d.), 0.61; in the series on LLC met (Cisplatin), 0.37; in the series with LLC met (Paclitaxel) it was 0.37; in series [2] (setting [7]), 0.37. In series [2] (study date 29, agent alone (2ME2 200 mg/kg p.o. q.d.; 5-FU 30 mg/kg p.o. q.d.×5)), the T/C is 0.79 and 0.51. Besides, the “mean changes in body weight as a consequence of treatment” value in “in vivo” (CT-26 bearing BALB/c mice) is reported as “moderate to no change”. The “T − C (Difference in tumor doubling time)” value in the series on PC3 was 0 days. Further, the IC50 stood at 463 nM with HUVEC and 3000 nM with CT-26 cells. Moreover, the “anti-proliferative dosage on glioblastoma cells relative to dosage with antiangiogenic effect on HUVEC” value in [5] is recorded as “nearly five times”. In addition, at estrogen receptor β, the “affinity for estrogen receptor β” value is “low affinity”. For the same compound, at estrogen receptor α, the “affinity for estrogen receptor α” value is “low affinity”. Also, the MST in the series on H2122 was 17 days.

`Cn1nnc2c(C(N)=O)ncn2c1=O` [Temodar ®, reference compound]: in the series on U87 MG ectopic tumors [3], the “%Δ (Percent change in tumor volume from start of treatment)” value was 266% and the “inhibition of tumor growth” value is listed as 34%. Also, the MTD at 5 days in series [6] is 42 mg/kg. Further, in the series with U87 MG ectopic tumors [4] (Temodar 42 mg/kg p.o., q.d.×5), the T/C was found to be 0.02 and the “inhibition of tumor growth” value stood at 98%.
